How the values were obtained:
[1] = Visual observation of wettability by stereomicroscope; assay type: physicochemical; conditions: one drop of distillate water on 0.1 mg powder
Protocol: Wettability of nanostructured Sildenafil Citrate particles was investigated in distilled water and was visualized by stereomicroscope equipped with CCD camera. 0.1 mg reference and nanostructure Sildenafil powder was placed to the slide and then one drop of distillate water was added to the powder.

[2] = Particle size concluded from X-ray diffractograms; assay type: physicochemical; conditions: XRD
Text: The wide reflection between 15 and 20 20 values indicates the amorphous structure of the Carbopol 971. The characteristic reflections of the crystalline Sildenafil citrate can be found on the XRD diffractogram of nanosized Sildenafil citrate, but with lower intensity.

[3] = cited from earlier work

CCCc1nn(C)c2c(=O)[nH]c(-c3cc(S(=O)(=O)N4CCN(C)CC4)ccc3OCC)nc12.O=C(O)CC(O)(CC(=O)O)C(=O)O [Sildenafil citrate, 1-[[3-(6,7-dihydro-1-methyl-7-oxo-3-propyl-1H-pyrazolo[4,3-d]pyrimidin-5-yl)-4-ethoxyphenyl]sulfonyl]-4-methylpiperazine citrate]
wettability [1]: stayed in their aggregated state
particle size from diffractograms [2]: 1-2 μm
absolute bioavailability ([3]; oral): 41%
dose dependence of AUC and cmax ([3]; single doses from 1.25 to 200 mg): dose-proportional

Reference: US20120128740A1, “NANOSTRUCTURED […] BASE, ITS PHARMACEUTICALLY ACCEPTABLE SALTS AND CO-CRYSTALS, COMPOSITIONS OF THEM, PROCESS FOR THE PREPARATION THEREOF AND PHARMACEUTICAL COMPOSITIONS CONTAINING THEM” (priority 2009, published 2012)
